In a compilation of properties of binary mixtures (doi:10.1021/je5008857):

Assay: xn = mol fraction of the nth substance listed
Settings: 101 kPa

CC(=O)[O-].[NH4+] + CC(=O)[O-].CC[n+]1ccn(C)c1
Settings | electrical conductivity [S/m] | viscosity [mPa·s]
298.15 K, x1 = 0.0503 | 0.255 | 153
298.15 K, x1 = 0.0999 | 0.226 | 186
298.15 K, x1 = 0.1703 | 0.181 | 261
298.15 K, x1 = 0.2498 | 0.146 | 389
298.15 K, x1 = 0.328 | 0.114 | 572
303.15 K, x1 = 0.0503 | 0.337 | 111.7
303.15 K, x1 = 0.0999 | 0.299 | 134.7
303.15 K, x1 = 0.1703 | 0.242 | 186
303.15 K, x1 = 0.2498 | 0.199 | 271
303.15 K, x1 = 0.328 | 0.158 | 390
303.15 K, x1 = 0.4491 | 0.106 | 673
308.15 K, x1 = 0.0503 | 0.431 | 83.9
308.15 K, x1 = 0.0999 | 0.389 | 100.1
308.15 K, x1 = 0.1703 | 0.319 | 135.5
308.15 K, x1 = 0.2498 | 0.266 | 194
313.15 K, x1 = 0.0503 | 0.542 | 64.6
313.15 K, x1 = 0.2498 | 0.349 | 142.3
313.15 K, x1 = 0.4491 | 0.201 | 321
318.15 K, x1 = 0.0503 | 0.671 | 50.7
318.15 K, x1 = 0.0999 | 0.617 | 59.1
318.15 K, x1 = 0.1703 | 0.519 | 77.2
318.15 K, x1 = 0.4491 | 0.267 | 230
323.15 K, x1 = 0.0503 | 0.862 | 40.5
323.15 K, x1 = 0.0999 | 0.796 | 46.6
323.15 K, x1 = 0.1703 | 0.641 | 59.9
323.15 K, x1 = 0.2498 | 0.562 | 81.3
323.15 K, x1 = 0.328 | 0.471 | 108.4
323.15 K, x1 = 0.4491 | 0.347 | 169

CC(=O)[O-].[Na+] + CC(=O)[O-].CC[n+]1ccn(C)c1
Settings | electrical conductivity, x1 = 0.0501 [S/m] | electrical conductivity, x1 = 0.1001 [S/m] | electrical conductivity, x1 = 0.1605 [S/m] | viscosity, x1 = 0.0501 [mPa·s] | viscosity, x1 = 0.1001 [mPa·s] | viscosity, x1 = 0.1605 [mPa·s]
298.15 K | 0.232 | 0.189 | 0.152 | 160 | 205 | 300
303.15 K | 0.305 | – | 0.207 | 117.1 | – | 210
308.15 K | 0.392 | 0.327 | 0.272 | 88 | 109.3 | 153
313.15 K | 0.491 | 0.416 | 0.352 | 67.7 | 83.1 | 113.7
318.15 K | 0.606 | 0.518 | 0.442 | 53.2 | 64.7 | 86.9
323.15 K | 0.734 | 0.632 | 0.537 | 42.7 | 51.3 | 67.9

CCS(=O)(=O)[O-].[NH4+] + CC(=O)[O-].CC[n+]1ccn(C)c1
Settings | electrical conductivity, x1 = 0.05 [S/m] | electrical conductivity, x1 = 0.0999 [S/m] | electrical conductivity, x1 = 0.1701 [S/m] | viscosity, x1 = 0.05 [mPa·s] | viscosity, x1 = 0.0999 [mPa·s] | viscosity, x1 = 0.1701 [mPa·s]
298.15 K | 0.247 | 0.2 | 0.164 | 157 | 210 | 299
303.15 K | 0.323 | 0.266 | 0.222 | 115 | 151 | 210
308.15 K | 0.415 | 0.346 | 0.293 | 86.3 | 111.2 | 151
313.15 K | 0.522 | 0.442 | – | 66.2 | 83.9 | –
318.15 K | – | 0.553 | 0.481 | – | 64.6 | 84.7
323.15 K | 0.775 | – | – | 41.3 | – | –

N#C[S-].[Na+] + CC(=O)[O-].CC[n+]1ccn(C)c1
x1 = 0.0502
Settings | electrical conductivity [S/m] | viscosity [mPa·s]
298.15 K | 0.242 | 150
303.15 K | 0.316 | 110.4
308.15 K | 0.404 | 83.3
313.15 K | 0.504 | 64.4
318.15 K | 0.618 | 50.9
323.15 K | 0.734 | 40.9

[Cl-].[NH4+] + CC(=O)[O-].CC[n+]1ccn(C)c1
Settings | electrical conductivity, x1 = 0.0505 [S/m] | electrical conductivity, x1 = 0.0999 [S/m] | electrical conductivity, x1 = 0.1702 [S/m] | electrical conductivity, x1 = 0.25 [S/m] | electrical conductivity, x1 = 0.3297 [S/m] | viscosity, x1 = 0.0505 [mPa·s] | viscosity, x1 = 0.0999 [mPa·s] | viscosity, x1 = 0.1702 [mPa·s] | viscosity, x1 = 0.25 [mPa·s] | viscosity, x1 = 0.3297 [mPa·s]
298.15 K | – | 0.19 | 0.139 | 0.0911 | 0.0567 | – | 236 | 405 | 775 | 1608
303.15 K | – | 0.255 | 0.192 | 0.13 | 0.0843 | – | 168 | 278 | 511 | 1040.8
308.15 K | 0.398 | 0.333 | 0.259 | 0.179 | 0.121 | 92.9 | 122.6 | 196 | 348 | 693
313.15 K | 0.501 | – | – | 0.242 | 0.169 | 71 | – | – | 245 | 478
318.15 K | – | 0.537 | 0.439 | 0.32 | 0.23 | – | 70.2 | 106.2 | 177 | 339
323.15 K | – | 0.661 | 0.552 | 0.414 | 0.305 | – | 54.7 | 80.6 | 130.5 | 246

CC(=O)[O-].CC[n+]1ccn(C)c1 + CC(=O)[O-].[NH4+]
x2 = 0
Settings | electrical conductivity [S/m] | viscosity [mPa·s]
298.15 K | 0.287 | 126.3
303.15 K | 0.374 | 93.6
308.15 K | 0.473 | 71.3
313.15 K | 0.587 | 55.5
318.15 K | 0.76 | 44.2

CC(=O)[O-].CC[n+]1ccn(C)c1 + CC(=O)[O-].[Na+]
x2 = 0
Settings | electrical conductivity [S/m] | viscosity [mPa·s]
298.15 K | 0.287 | 126.3
303.15 K | 0.374 | 93.6
308.15 K | 0.473 | 71.3
313.15 K | 0.587 | 55.5
318.15 K | 0.76 | 44.2
323.15 K | 0.918 | 35.7

CC(=O)[O-].CC[n+]1ccn(C)c1 + CCS(=O)(=O)[O-].[NH4+]
x2 = 0
Settings | electrical conductivity [S/m] | viscosity [mPa·s]
298.15 K | 0.287 | 126.3
308.15 K | 0.473 | 71.3
313.15 K | 0.587 | 55.5
323.15 K | 0.918 | 35.7

CC(=O)[O-].CC[n+]1ccn(C)c1 + N#C[S-].[Na+]
x2 = 0
Settings | electrical conductivity [S/m] | viscosity [mPa·s]
298.15 K | 0.287 | 126.3
308.15 K | 0.473 | 71.3
318.15 K | 0.76 | 44.2
323.15 K | 0.918 | 35.7

CC(=O)[O-].CC[n+]1ccn(C)c1 + [Cl-].[NH4+]
x2 = 0
Settings | electrical conductivity [S/m] | viscosity [mPa·s]
298.15 K | 0.287 | 126.3
303.15 K | 0.374 | 93.6
313.15 K | 0.587 | 55.5
323.15 K | 0.918 | 35.7
